These results are taken from patent US9346762B2, “Pyrazole derivatives and their use as LPAR5 antagonists” (SANOFI, priority 2012, dated 2016).

Molecules are shown by their SMILES.

Type in all cases: cell-based
Assay [1] relates to washed human blood platelets (platelet LPA receptor LPAR5). Kind of assay: Aggregation assay for washed human blood platelets (LPA-induced). The settings on record: reduction of maximal LPA-induced aggregation, 5 min preincubation at 37° C. As for the experimental part:
A) Aggregation Assay for Washed Human Blood Platelets (Thrombocytes)
Whole blood was collected from healthy volunteers using 3×20 ml syringes containing each 1/10 volume of buffered citrate. The anticoagulated whole blood was transferred into 50 ml polypropylene conical tubes (30 ml per tube). The tubes were centrifuged for 10 minutes at 150×g at room temperature without using the centrifuge brake. This procedure results in a lower phase of cellular components and a supernatant (upper phase) of platelet rich plasma (PRP). The PRP phase was collected from each tube and pooled for each donor. To avoid carry over of cellular components following first centrifugation, approximately 5 ml of PRP was left in the tube. The platelet concentration was determined using a ABX Micros 60 counter. The PRP phase was transferred to a new 50 ml tube. After 10 minutes standing at room temperature, 1 μl PGI2 (1 mM in Tris-HCl/pH 8.8) and 180 μl ACD/A were added per ml PRP. The PRP was then transferred to new 10 ml tube and centrifuged for 10 minutes at 500×g. After centrifugation a cellular pellet is visible at the bottom of the tube. The supernatant was carefully discarded and the cellular pellet, consisting of human blood platelets was then dissolved in 10 ml buffer T (buffer T composition: 145 mM NaCl, 5 mM KCl, 0.1 mM MgCl2×6 H2O, 15 mM HEPES, 5.5 mM glucose, pH 7.4). Platelet concentration in this solution was determined and buffer T was added to obtain a final concentration of 3.5×10^5 platelets per ml.
After 10 minutes at room temperature, 1 μl PGI2 per ml platelet solution was added and distributed into new 10 ml tubes. After a centrifugation step, 10 minutes at 500×g, supernatant was discarded and the platelets were resuspended in buffer T to a final concentration of 3.5×10^5 platelets per ml buffer T. Before use, platelet-containing buffer equilibrated for 30 minutes at room temperature. The human platelet aggregation assay was performed in single use cuvettes using the Platelet Aggregation Profiler® (PAP-4 or -8E, BIO/DATA Corporation). For a single experiment, 320 μl of platelet solution were transferred into an assay cuvette, 20 μl of calcium citrate solution (10 mM in H2O) and 20 μl of fibrinogen solution (20 mg/ml H2O) were added. The aggregation assay was performed in the assay cuvette at 37° C. and with 1.200 rpm stirring. To determine the EC50, eight assay cuvettes were loaded as described above with different concentrations of LPA. Aggregation was measured over 6 minutes at 37° C. with 1200 rpm (revolutions per minute) stirring. Results of the assay are expressed as % activation, and are calculated using maximum aggregation (Tmax) or area under curve (AUC) of the absorbance over 6 minutes. The inhibitory effect (IC50) of the test compounds was determined as the reduction of the maximal aggregation. Test compound was added prior starting the experiment with an incubation time of the test compound of 5 minutes at 37° C. with 1200 rpm stirring. The IC50 data of the above described platelet aggregation assay using human washed platelets for exemplary compounds of the present invention are shown in Table 1.

Assay [2] has as its system human mast cell line HMC-1 (LPA receptor LPAR5). Kind of assay: FLIPR assay, intracellular Ca2+ release in human mast cell line HMC-1. Particulars: HMC1, LPA-stimulated Ca2+ release, HMC-1 cells, compound added 10 minutes prior to LPA. The text has this: (§1) B) Use of the Fluorometric Imaging Plate Reader (FLIPR) Assay for the Determination of Intracellular Ca^2+ Release in Human Mast Cell Line HMC-1 and the Murine Microglia cell line BV-2
(§2) The ability of the compounds of the formula Ito inhibit or bind the LPA receptor LPAR5 can be assessed by determining the intracellular Ca^2+ release in human or animal cells. For the analysis of activating potential of LPA and the inhibitory effects of compounds of the formula I two cell lines were used with high LPAR5 expression, the human mast cell line HMC-1 and the murine microglia cell line BV-2 (FIGS. 1 and 2). For the FLIPR assay using human mast cells in a 96-well-format, HMC-1 suspension cells from flask culture were harvested, resuspended and counted. 14×10^6 HMC-1 cells were transferred into a new 50 ml tube, centrifuged for 3 minutes at 540×g. The resulting cell pellet at the bottom of the tube was resuspended with 15 ml loading buffer (loading buffer contained HBSS buffer (pH 7.4), 0.1% BSA (bovine serum albumin), 2 μM FLUO-4 dye; HBSS buffer (pH 7.4) contained 1×HBSS, 20 mM HEPES, 0.01% Pluronic F-127, 2.5 mM Probenicid).
Cells in loading buffer were incubated for 45-60 minutes at 37° C. After incubation cells were centrifuged for 3 minutes at 540×g and resuspended with 21 ml of HBSS buffer (pH 7.4). Each well of a poly-D-lysine coated 96-well-plate was filled with 150 μl cell solution, an equivalent of 100 000 cells/well. The 96-well-plate was centifuged for 2 minutes at 100×g (without brake) prior a recovery time of 30 minutes at 37° C. After this procedure cells were stimulated with LPA (in HBSS pH 7.4 and 0.1% BSA) to determine the EC50 of LPA in HMC-1 cells. For the determination of the inhibitory effect of compounds of the formula I, test compounds were added to the cells in the 96-well-plate 10 minutes prior the addition of LPA. Results of the assay are expressed as % activation, and are calculated using maximum peak of activation (Amax). The IC50 data of the above described FLIPR assay using human mast cell line HMC-1 for exemplary compounds of the present invention are shown in Table 2. Adherent BV-2 cells were seeded onto poly-D-lysine coated 96-well-plates (100000 cells/well) the day before performing the FLIPR assay. The density of the cells in the 96-well-plate at the day of the FLIPR assay should be 90%. After aspiration of the culture media, BV-2 cells were incubated for 30 minutes at 37° C. with loading buffer and recovered in 150 μl HBSS buffer for 30 minutes at 37° C. After this procedure cells were stimulated with LPA (in HBSS pH 7.4 and 0.1% BSA) to determine the EC50 of LPA in BV-2 cells. For the determination of the inhibitory effect of compounds of the formula I, test compounds were added to the cells in the 96-well-plate 10 minutes prior the addition of LPA. The IC50 data of the above described FLIPR assay using the murine microglia cell line BV-2 for exemplary compounds of the present invention are shown in Table 3.

Assay [3] has as its system murine microglia cell line BV-2 (LPA receptor LPAR5). Kind of assay: FLIPR assay, intracellular Ca2+ release in murine microglia cell line BV-2. The settings on record: Mus musculus; LPA-stimulated Ca2+ release, BV-2 cells, compound added 10 minutes prior to LPA.
From the text: as §1, §2
Cells in loading buffer were incubated for 45-60 minutes at 37° C. […] Results of the assay are expressed as % activation, and are calculated using maximum peak of activation (Amax). […]

A word on the IC50: it is the midpoint of a concentration-inhibition curve.

As to `Cc1c(COC(C)C(=O)O)nn(-c2ccc(Cl)cc2Cl)c1-c1ccc(Cl)cc1` (stereo not drawn) [Example 8, 2-[5-(4-Chloro-phenyl)-1-(2,4-dichloro-phenyl)-4-methyl-1H-pyrazol-3-ylmethoxy]-propionic acid], the figures for the IC50 in assay [1] and in assay [2] were 4.1 µM and 6.3 µM, respectively.

Regarding `CCC(OCc1nn(-c2ccc(Cl)cc2Cl)c(-c2ccc(Cl)cc2)c1C)C(=O)NCc1ccc(C(=O)O)cc1` (stereo not drawn) [Example 12, 4-({2-[5-(4-Chloro-phenyl)-1-(2,4-dichloro-phenyl)-4-methyl-1H-pyrazol-3-ylmethoxy]-butyrylamino}-methyl)-benzoic acid], the IC50 in assay [1] is 4.3 µM; in assay [2] it was 6.3 µM.

On to `Cc1c(COC(C)(C)C(=O)NCc2ccc(C(=O)O)cc2)nn(-c2ccc(Cl)cc2Cl)c1-c1ccc(C(F)(F)F)cc1` [Example 10, 4-({2-[1-(2,4-Dichloro-phenyl)-4-methyl-5-(4-trifluoromethyl-phenyl)-1H-pyrazol-3-ylmethoxy]-2-methyl-propionylamino}-methyl)-benzoic acid], for which the IC50 was 0.2 µM in assay [3] and 0.03 µM in assay [2].

On to `Cc1c(COC(C)C(=O)NCc2ccc(C(=O)O)cc2)nn(-c2ccc(Cl)cc2Cl)c1-c1ccc(Cl)cc1` (stereo not drawn) [Example 15, 4-({2-[5-(4-Chloro-phenyl)-1-(2,4-dichloro-phenyl)-4-methyl-1H-pyrazol-3-ylmethoxy]-propionylamino}-methyl)-benzoic acid], for which the results for the IC50 in assay [1] and in assay [2] were 6.5 µM and 8.8 µM, respectively.

For `Cc1c(COC(C(=O)Nc2ccc(C(=O)O)cc2)C(C)C)nn(-c2ccc(Cl)cc2Cl)c1-c1ccc(Cl)cc1` (stereo not drawn) [Example 17, 4-{2-[5-(4-Chloro-phenyl)-1-(2,4-dichloro-phenyl)-4-methyl-1H-pyrazol-3-ylmethoxy]-3-methyl-butyrylamino}-benzoic acid], the IC50 in assay [1] was determined as 15.9 µM; in assay [2], 4.2 µM.

As for `Cc1c(COC(C)(C)C(=O)NCc2ccc(C(=O)O)cc2)nn(-c2ccc(Cl)cc2Cl)c1-c1ccc(Cl)cc1` [Example 9, 4-({2-[5-(4-Chloro-phenyl)-1-(2,4-dichloro-phenyl)-4-methyl-1H-pyrazol-3-ylmethoxy]-2-methyl-propionylamino}-methyl)-benzoic acid], the IC50 in assay [1] was 2.9 µM; in assay [3], 1.8 µM; in assay [2], 1.3 µM.

Consider `CCC(OCc1nn(-c2ccc(Cl)cc2Cl)c(-c2ccc(Cl)cc2)c1C)C(=O)O` (stereo not drawn) [Example 7, 2-[5-(4-Chloro-phenyl)-1-(2,4-dichloro-phenyl)-4-methyl-1H-pyrazol-3-ylmethoxy]-butyric acid], for which the IC50 stood at 4.7 µM in assay [1] and 11.4 µM in assay [2].
